Measurements reported in patent US6930113B2, “Nitrosated and nitrosylated phosphodiesterase inhibitors, compositions and methods of use” (Nitromed, Inc., priority 1996, dated 2005).

Tested on: Human corpus cavernosum tissue
Experiment: In vitro comparative relaxation responses (isometric tension of tissue strips in organ chambers)
Assay type: cell-based
Conditions: doses of 10 μM and 30 μM; tissue contracted with phenylephrine 7×10^−7 M; compared with equimolar dipyridamole; FIG. 58
Excerpt: Human corpus cavernosum tissue biopsies were obtained at the time of penile prosthesis implantation from impotent men. The tissue was maintained in a chilled Krebs-bicarbonate solution prior to assay. The tissue was cut into strips of 0.3×0.3×1 cm and suspended in organ chambers for isometric tension measurement. Tissues were incrementally stretched until optimal isometric tension for contraction was obtained. Once this was achieved, the tissues were contracted with phenylephrine (7×10^−7 M) and once a stable contraction was achieved, the tissues were exposed to either dipyridamole or the compound of Example 1 (10^−6 to 3×10^−5 M) by cumulative additions to the chamber. At the end of the experiment, papaverine (10^−4 M) was added to obtain maximal relaxation. […] Data were expressed as the percent loss in tone from the phenylephrine-induced contraction (0%=phenylephrine contraction; −100%=tone after administration of papaverine).

## CC(C)(CC(=O)OCCN(CCOC(=O)CC(C)(C)SN=O)c1nc(N2CCCCC2)c2nc(N(CCOC(=O)CC(C)(C)SN=O)CCOC(=O)CC(C)(C)SN=O)nc(N3CCCCC3)c2n1)SN=O [Example 1, 2,6-bis(Diethyl(3-methyl-3-(nitrosothio)butyric acid ester)amino)-4,8-dipiperidinopyrimido-[5,4-d]-pyrimidine]
  relaxing the phenylephrine-induced contraction (percent loss in tone from the phenylephrine-induced contraction): more efficacious
